The assay addresses T1, HDAC6 (Homo sapiens, UniProt Q9UBN7).
T1 sequence (Q9UBN7 1-1215): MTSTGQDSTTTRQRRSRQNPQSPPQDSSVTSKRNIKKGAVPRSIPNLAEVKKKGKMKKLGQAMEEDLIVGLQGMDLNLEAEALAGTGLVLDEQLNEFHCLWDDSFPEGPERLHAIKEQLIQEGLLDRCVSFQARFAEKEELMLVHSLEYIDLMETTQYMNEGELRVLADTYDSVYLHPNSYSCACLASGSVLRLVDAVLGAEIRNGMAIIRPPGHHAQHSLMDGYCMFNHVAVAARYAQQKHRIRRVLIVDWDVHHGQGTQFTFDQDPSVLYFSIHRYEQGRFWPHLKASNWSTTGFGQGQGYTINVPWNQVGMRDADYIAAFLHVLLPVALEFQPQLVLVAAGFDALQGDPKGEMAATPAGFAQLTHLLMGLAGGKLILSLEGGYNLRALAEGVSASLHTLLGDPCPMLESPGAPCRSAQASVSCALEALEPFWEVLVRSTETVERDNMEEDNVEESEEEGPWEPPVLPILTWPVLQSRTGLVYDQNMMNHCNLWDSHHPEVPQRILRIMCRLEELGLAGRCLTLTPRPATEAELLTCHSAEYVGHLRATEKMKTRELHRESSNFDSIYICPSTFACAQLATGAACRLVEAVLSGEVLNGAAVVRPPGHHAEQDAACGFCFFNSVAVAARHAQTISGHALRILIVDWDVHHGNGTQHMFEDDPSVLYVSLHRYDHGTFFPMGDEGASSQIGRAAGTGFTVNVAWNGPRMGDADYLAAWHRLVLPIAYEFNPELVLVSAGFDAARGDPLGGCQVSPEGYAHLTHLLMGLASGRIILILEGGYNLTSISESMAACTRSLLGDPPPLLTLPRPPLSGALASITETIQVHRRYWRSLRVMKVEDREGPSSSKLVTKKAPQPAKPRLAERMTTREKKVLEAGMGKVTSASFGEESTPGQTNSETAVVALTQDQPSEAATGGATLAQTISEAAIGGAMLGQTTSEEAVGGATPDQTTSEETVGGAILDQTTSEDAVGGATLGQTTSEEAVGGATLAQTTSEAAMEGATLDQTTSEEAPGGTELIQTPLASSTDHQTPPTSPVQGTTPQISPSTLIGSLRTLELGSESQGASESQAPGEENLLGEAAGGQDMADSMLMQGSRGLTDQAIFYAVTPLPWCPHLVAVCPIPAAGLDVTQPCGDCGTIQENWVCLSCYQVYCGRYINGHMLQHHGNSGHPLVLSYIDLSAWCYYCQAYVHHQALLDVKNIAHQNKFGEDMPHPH
Briefly: HDAC6 degradation in PBMCs (immunoblot). The format is cell-based. Set-up: endogenous in cells; host or cells: PBMCs (with or without LPS priming). To be noted: XY-07-35 at 1 μM. The text has this:
Figure 3 Effect of […] mediated HDAC6 degradation on NLRP3 inflammasome activation in PBMCs.A, schematic of the mode of action of an HDAC6 degrader. The PROTAC engages both HDAC6 and the E3 ligase cereblon (CRBN), which then leads to ubiquitination and degradation of HDAC6. B, chemical structure of the HDAC6 degrader XY-07-35 and of the negative control XY-07-191 which no longer recruits CRBN. C, in vitro enzymatic assay of compound XY-07-35 on the activity of different HDACs. IC50 for each enzyme is shown. D, XY-07-35 mediated HDAC6 degradation in PBMCs. PBMCs (without or with LPS priming for 4 h) were treated with the indicated compounds and HDAC6 levels were detected by immunoblotting with an anti-HDAC6 antibody. Detection of actin was used as a control for loading. CGP, CGP084892 (Caspase-1 inhibitor); AFN700 is an inhibitor of the NF-kB pathway (IKK inhibitor). E, HDAC6 degradation impact on IL-1β release in PBMCs following MSU 200 μg/ml (5 h), nigericin 2 μM (2 h) or ATP 3 mM (0.5 h) treatment. Cells were first primed with 0.2 ng/ml LPS for 4 h at 37 °C, then treated with MSU, nigericin, and ATP as indicated. […]
Treated BMDM cells were lysed with RIPA buffer (supplied with cOmplete Protease Inhibitor Cocktail, Merck#11697498001), and protein concentration was determined by Bradford assay. […]
(A western blot detects proteins with antibodies after separation by electrophoresis.)

Take `CN(C(=O)CCCNc1cccc2c1C(=O)N(C1CCC(=O)NC1=O)C2=O)c1ccc(NC(=O)CCCCCCC(=O)NO)cc1` (centres unmarked) [XY-07-35]: the “HDAC6 degradation / effect on HDAC6 levels” value is reported as “efficiently degraded”.

In the case of `CN1C(=O)CCC(N2C(=O)c3cccc(NCCCC(=O)N(C)c4ccc(NC(=O)CCCCCCC(=O)NO)cc4)c3C2=O)C1=O` (centres unmarked) [XY-07-191], the “HDAC6 degradation / effect on HDAC6 levels” value is listed as “only minimal or no effect on HDAC6 levels”.

(Values after paper PMC10850954, “HDAC6/aggresome processing pathway importance for inflammasome formation is context-dependent” (The Journal of Biological Chemistry, 2024).)
